Measured values taken from ChEMBL document CHEMBL1146991, “The synthesis of highly potent, selective, and water-soluble agonists at the human adenosine A3 receptor” (Bioorg Med Chem Lett, 2006).
In brackets after ≈: the same amount, converted by molar mass.

Experiments:
Adenosine receptor A3 [1] = target: T1, Adenosine receptor A3 (Homo sapiens, UniProt P0DMS8); experiment: Binding affinity to human adenosine A3 receptor
T1 sequence (P0DMS8 whole entry): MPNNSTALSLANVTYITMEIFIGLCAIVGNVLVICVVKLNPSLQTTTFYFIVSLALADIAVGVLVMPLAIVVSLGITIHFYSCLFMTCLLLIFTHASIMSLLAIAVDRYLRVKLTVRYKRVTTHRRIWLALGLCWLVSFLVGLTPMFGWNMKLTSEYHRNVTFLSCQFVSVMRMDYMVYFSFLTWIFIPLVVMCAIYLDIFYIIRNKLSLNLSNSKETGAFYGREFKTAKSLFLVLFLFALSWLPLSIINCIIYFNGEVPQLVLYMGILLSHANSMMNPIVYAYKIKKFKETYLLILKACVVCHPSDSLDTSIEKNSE

[2] = target: Adenosine receptors; A1 & A3 (Homo sapiens) (UniProt P30542+P0DMS8); experiment: Selectivity for human adenosine A3 receptor over human adenosine A1 receptor; format: protein assay
Adenosine receptors; A1 & A3 (Homo sapiens), sequence (P30542 whole entry, looked up, one chain of several): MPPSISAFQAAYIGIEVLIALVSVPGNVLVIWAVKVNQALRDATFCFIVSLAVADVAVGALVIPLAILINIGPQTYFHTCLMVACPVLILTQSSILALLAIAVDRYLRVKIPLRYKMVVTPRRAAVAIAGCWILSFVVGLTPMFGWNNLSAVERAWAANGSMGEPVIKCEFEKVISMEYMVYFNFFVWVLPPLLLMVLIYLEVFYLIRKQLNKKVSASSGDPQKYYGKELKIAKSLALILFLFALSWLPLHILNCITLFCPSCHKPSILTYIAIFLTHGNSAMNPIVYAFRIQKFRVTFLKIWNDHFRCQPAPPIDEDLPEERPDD

[3] = target: Adenosine receptor A2a (Homo sapiens) (UniProt P29274); experiment: Increase of cAMP production in HEK293 cell expressing human adenosine A2A receptor at 3 uM; format: functional, cell-based
Adenosine receptor A2a (Homo sapiens), sequence (P29274 whole entry): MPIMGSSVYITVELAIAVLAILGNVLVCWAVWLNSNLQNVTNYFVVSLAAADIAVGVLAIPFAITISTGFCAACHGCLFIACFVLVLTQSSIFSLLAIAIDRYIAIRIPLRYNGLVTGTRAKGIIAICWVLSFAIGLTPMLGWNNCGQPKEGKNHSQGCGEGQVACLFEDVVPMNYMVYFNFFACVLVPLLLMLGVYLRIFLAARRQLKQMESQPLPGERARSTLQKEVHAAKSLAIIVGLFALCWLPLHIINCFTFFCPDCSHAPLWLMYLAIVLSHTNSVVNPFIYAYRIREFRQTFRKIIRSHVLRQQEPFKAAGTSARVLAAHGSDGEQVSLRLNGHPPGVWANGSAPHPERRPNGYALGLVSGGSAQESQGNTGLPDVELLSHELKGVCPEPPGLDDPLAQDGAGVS

Adenosine receptor A3 [4] = target: T1, Adenosine receptor A3; experiment: Inhibition of isoproterenol-induced increase of cAMP in HEK293 cell expressing human adenosine A3 receptor; format: functional, cell-based
[5] = Solubility in citrate buffer at pH 4; format: physicochemical
[6] = target: T2, Adenosine receptor A2b (Homo sapiens) (UniProt P29275); experiment: Increase of cAMP production in HEK293 cell expressing human adenosine A2B receptor at 3 uM; format: functional, cell-based
T2 sequence (whole entry): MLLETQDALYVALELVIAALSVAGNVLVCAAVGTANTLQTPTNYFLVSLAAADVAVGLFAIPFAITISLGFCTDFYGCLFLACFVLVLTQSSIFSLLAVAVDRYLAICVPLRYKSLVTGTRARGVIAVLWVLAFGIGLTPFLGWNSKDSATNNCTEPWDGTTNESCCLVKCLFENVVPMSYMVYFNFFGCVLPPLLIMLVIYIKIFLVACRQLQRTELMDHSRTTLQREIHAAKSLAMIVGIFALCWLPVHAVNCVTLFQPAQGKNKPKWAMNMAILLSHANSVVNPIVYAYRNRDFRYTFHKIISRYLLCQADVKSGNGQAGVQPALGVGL

Compound	Ki (Adenosine receptor A3 [1])	Selectivity ratio [2]	other results
CNC(=O)[C@H]1O[C@@H](n2cnc3c(NCc4cc(OC)ccc4OC)ncnc32)[C@H](O)[C@@H]1O	3.9 nM	45	–
CNC(=O)[C@H]1O[C@@H](n2cnc3c(NC)ncnc32)[C@H](O)[C@@H]1NC(C)=O	> 3000 nM	–	–
CNC(=O)[C@@H]1C[C@@H](O)[C@H](n2cnc3c(NC)ncnc32)O1	59 nM	6	–
CCNC(=O)N[C@H]1[C@@H](O)[C@H](n2cnc3c(NC)ncnc32)O[C@@H]1C(=O)NC	> 3000 nM	–	–
CNC(=O)[C@H]1O[C@@H](n2cnc3c(NCc4cc(Cl)ccc4OCC(=O)N4CCOCC4)ncnc32)[C@H](O)[C@@H]1N	20 nM	700	–
CNC(=O)[C@H]1O[C@@H](n2cnc3c(NCc4cc(Cl)ccc4OCC(=O)N4CCCCC4)ncnc32)[C@H](O)[C@@H]1N	18 nM	720	–
CNC(=O)[C@H]1O[C@@H](n2cnc3c(NC)ncnc32)C[C@@H]1O	87 nM	12.6	–
CNC(=O)[C@H]1O[C@@H](n2cnc3c(NCc4cc(Cl)ccc4OCC(=O)O)ncnc32)[C@H](O)[C@@H]1N	130 nM	222	–
CNC(=O)[C@H]1O[C@@H](n2cnc3c(NC)ncnc32)[C@H](O)[C@@H]1O	–	13	–
CNC(=O)[C@H]1O[C@@H](n2cnc3c(NCc4cc(Cl)ccc4OCC(=O)N4CCNCC4)ncnc32)[C@H](O)[C@@H]1N	9.4 nM	445	Activity [3]: 16%; EC50 (Adenosine receptor A3 [4]): 8.1 nM; solubility [5]: 50 mg/mL (≈ 89.3 mM); Activity [6]: 1%
CNC(=O)[C@H]1O[C@@H](n2cnc3c(NCc4cc(OC)ccc4OC)ncnc32)[C@H](O)[C@@H]1N	160 nM	294	–
CNC(=O)[C@H]1O[C@@H](n2cnc3c(NCc4cc(Cl)cc(Cl)c4)ncnc32)[C@H](O)[C@@H]1O	2.5 nM	9.4	–

More lines, main results first:

Ki (Adenosine receptor A3 [1])	Selectivity ratio [2]	Compound	other results
6.8 nM	526	CNC(=O)[C@H]1O[C@@H](n2cnc3c(NCc4cc(Cl)ccc4OCC(N)=O)ncnc32)[C@H](O)[C@@H]1N	–
9.1 nM	456	CNC(=O)[C@H]1O[C@@H](n2cnc3c(NCc4cc(Cl)ccc4OCC(=O)N4CCC(N(C)C)CC4)ncnc32)[C@H](O)[C@@H]1N	–
–	194	CNC(=O)[C@H]1O[C@@H](n2cnc3c(NC)ncnc32)[C@H](O)[C@@H]1N	–
16 nM	691	CNC(=O)[C@H]1O[C@@H](n2cnc3c(NCc4cc(Cl)ccc4OCc4ccccc4)ncnc32)[C@H](O)[C@@H]1N	–
> 3000 nM	–	CNC(=O)[C@H]1O[C@@H](n2cnc3c(NC)ncnc32)[C@H](O)[C@@H]1NS(C)(=O)=O	–
25 nM	148	CNC(=O)[C@H]1O[C@@H](n2cnc3c(NCc4cc(Cl)cc(Cl)c4)ncnc32)[C@H](O)[C@@H]1N	–
15 nM	317	CNC(=O)[C@H]1O[C@@H](n2cnc3c(NCc4cc(Cl)ccc4OC)ncnc32)[C@H](O)[C@@H]1N	–
